What was measured:
[1] = system: rat adjuvant-induced arthritis; experiment: Rat adjuvant-induced arthritis model; assay type: in vivo
Method: Mean of 10 readings was recorded.
Drugs were formulated fresh for each administration.

[2] = Ex vivo bioassay of blood concentration after oral administration; set-up: species or system rat; conditions: 10 mg/kg oral, suspension in PBS/Tween, +/- CyA 0.3 mg/kg, 0.5-24 hrs, n=6
Method: Compound 1 (10 mg/kg)±CyA (0.3 mg/kg) (in PBS/0.1% Tween 80™] was administered to healthy male Lewis rats (as above). Blood samples (0.5 ml into a syringe containing 0.1 ml acid citrate dextroset as anticoagulant) were removed from the ventrcolateral tail vein of the halothane anaestetised rat at t=prebleed, 0.5, 1, 2, 6 and 24 hrs. 3 mls methanol was added to each blood sample, mixed and centrifuged at 3000 r.p.m. for 15 minutes (using Beckman GPKR centrifuge). 2.0 ml of the methanol supernatant was removed and evaporated dry. The pellet was redisolved in 200 μl DMSO (dimethylsulphoxide). An aliquot of the solubilised pellet was assayed against fibroblast collagenase using ^14C collagen as substrate, as follows:
Samples were incubated overnight at 37° C. and undigested substrate removed by centrifugation at 11,600 r.p.m. for 15 mins (using Heraeus Biofuge 15). 200 μl of supernatant was tested by liquid scintillation spectrophotometry.
A calibration curve for the test compound of interest was run alongside the blood samples. The concentration of the test compound in the blood was then calculated from the calibration curve.

Compound	effect on arthritis ([1]; Compound 1 10 mg/ml (so in the source), po, bid, days 10-20)	reducing the paw volume (swelling) ([1]; Compound 1 at doses at or below 10 mg/kg, po, bid (data not shown))	blood concentration of Compound 1 with versus without CyA [2]	synergy with cyclosporin A ([1]; Compound 2 5 mg/kg ip, bid with cyclosporin A 0.3 mg/kg ip, bid)
CCC[C@H](C(=O)NO)[C@@H](CC(C)C)C(=O)N[C@H](C(=O)NC)C(C)(C)C [Compound 1, 3R-(2,2-Dimethyl-1S-methylcarbamoyl-propylcarbamoyl)-5-methyl-2S-2-propyl-hexanohydroxamic acid]	very little or no effect	ineffective	equivalent	
CNC(=O)[C@H](Cc1ccccc1)NC(=O)[C@H](CC(C)C)[C@H](CSc1cccs1)C(=O)NO [Compound 2, [4-(N-Hydroxyamino)-2R-isobutyl-3S-(thiophenylthiomethyl)succinyl]-L-phenylalanine-N-methylamide]				act in synergy
